pIC50: −log10 of the molar value.

Among the data in patent EP4800013A1, “PARG INHIBITOR” (Shanghai Qilu Pharmaceutical Research and Development …, priority 2023, dated 2025) are IC50 values, retold here.

Experiment [1] concerns KURAMOCHI cells. Kind of experiment: Inhibition of proliferation of KURAMOCHI cells (CellTiter-Glo, intracellular ATP). Type of experiment: cell-based. As to conditions: 168 h, incubated for 7 days, read-out: IC50 against KURAMOCHI cells. The essentials: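 KURAMOCHI cells seeded at 4000/well, incubated overnight, then treated with 9-point 1:4 compound series from 10 µM (0.5% DMSO) for 7 days at 37°C, 5% CO2. Viability read by CellTiter-Glo luminescence; inhibition normalised to medium-only (100%) and DMSO (0%) controls, IC50 from variable-slope four-parameter fit.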

Experiment [2] has as its target T1, PARG (Homo sapiens, UniProt Q86W56).
T1 construct: made in house
Kind of experiment: Enzymatic inhibitory activity against PARG, HTRF assay. As to conditions: HTRF; PARylated PARP1 protein as substrate; 60 minutes at room temperature; read-out: IC50 against PARG enzyme. Type of experiment: biochemical. The method, boiled down: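 Purified PARG pre-incubated with compounds (top 10 µM, 3- to 5-fold dilutions, duplicates) 15 min at room temperature, then PARylated PARP1 substrate added for 60 min in Tris pH 7.4 buffer with DTT, EDTA/EGTA, KCl. HTRF (His-Tb/SA-XL665) read-out; IC50 by four-parameter logistic fit, normalised to DMSO and control-inhibitor wells.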

T1 sequence (Q86W56 whole entry): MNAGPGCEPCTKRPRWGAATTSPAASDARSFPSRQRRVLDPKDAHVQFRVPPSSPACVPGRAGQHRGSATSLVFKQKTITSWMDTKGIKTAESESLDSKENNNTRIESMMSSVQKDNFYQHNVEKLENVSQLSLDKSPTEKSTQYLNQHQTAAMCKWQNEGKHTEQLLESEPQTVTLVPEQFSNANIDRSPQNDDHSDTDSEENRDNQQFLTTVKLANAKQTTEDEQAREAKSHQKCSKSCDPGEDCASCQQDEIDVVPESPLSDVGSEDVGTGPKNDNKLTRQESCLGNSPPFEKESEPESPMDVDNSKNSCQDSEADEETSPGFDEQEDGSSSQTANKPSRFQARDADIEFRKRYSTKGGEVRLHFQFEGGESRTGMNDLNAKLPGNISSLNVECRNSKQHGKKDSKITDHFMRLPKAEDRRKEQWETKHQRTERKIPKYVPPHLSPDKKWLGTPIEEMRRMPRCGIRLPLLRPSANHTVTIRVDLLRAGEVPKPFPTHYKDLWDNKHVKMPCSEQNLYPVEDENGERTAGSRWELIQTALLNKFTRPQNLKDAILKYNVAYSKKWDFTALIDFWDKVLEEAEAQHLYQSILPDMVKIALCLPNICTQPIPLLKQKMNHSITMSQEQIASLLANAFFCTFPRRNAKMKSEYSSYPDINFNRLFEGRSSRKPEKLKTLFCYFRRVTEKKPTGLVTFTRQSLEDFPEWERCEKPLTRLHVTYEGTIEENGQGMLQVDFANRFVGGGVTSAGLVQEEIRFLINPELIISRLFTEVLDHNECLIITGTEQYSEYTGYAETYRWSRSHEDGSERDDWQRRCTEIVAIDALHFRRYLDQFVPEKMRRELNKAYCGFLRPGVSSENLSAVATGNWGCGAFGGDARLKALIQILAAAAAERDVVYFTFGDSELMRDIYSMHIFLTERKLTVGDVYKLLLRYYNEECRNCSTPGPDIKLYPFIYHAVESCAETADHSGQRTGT

On to `C=CCn1c(=O)n(-c2nnc(C(F)F)s2)c2cc(S(=O)(=O)NC3(C#N)CC3)cc(N3CCN(C(=O)C4(C)CCCO4)CC3)c21` (centres unmarked) [Compound 076J], for which the pIC50 in experiment [1] is 8.05; in experiment [2], 8.15.

With `C[C@H]1CN(c2cc(S(=O)(=O)NC3(C#N)CC3)cc3c2nc(OC2CC2)n3-c2nnc(C(F)F)s2)C[C@H](C)N1` [Compound 077A], the pIC50 in experiment [1] was 7.96; in experiment [2] it was 7.98.

For `C[C@H]1CN(c2cc(S(=O)(=O)NC3(C)CC3)cc3c2nc(C2CCCO2)n3-c2nnc(C(F)F)s2)C[C@H](C)N1` (some centres unmarked) [Compound 077B], the pIC50 in experiment [1] is 8.15; in experiment [2], 8.47.

Regarding `C[C@H]1CN(c2cc(S(=O)(=O)NC3(C)CC3)cc3c2nc(OC2CC2)n3-c2nnc(C(F)F)s2)C[C@H](C)N1` [Compound 077F], the figures for the pIC50 in experiment [1] and in experiment [2] were 8.05 and 8.04, respectively.

On to `CC(C)Oc1nc2c(N3C[C@H](C)N[C@@H](C)C3)cc(S(=O)(=O)NC3(C)CC3)cc2n1-c1nnc(C(F)F)s1` [Compound 077G], for which the pIC50 in experiment [1] is 8.70; in experiment [2], 8.80.

In the case of `CC(C)Oc1nc2c(N3C[C@H](C)N[C@@H](C)C3)cc(S(=O)(=O)NC3(C#N)CC3)cc2n1-c1nnc(C(F)F)s1` [Compound 077H], the values for the pIC50 in experiment [1] and in experiment [2] were 8.30 and 8.52, respectively.

Regarding `C[C@H]1CN(c2cc(S(=O)(=O)NC3(C)CC3)cc3c2nc(C2COCCO2)n3-c2nnc(C(F)F)s2)C[C@H](C)N1` (some centres unmarked) [Compound 077N], the pIC50 in experiment [1] was 8.10; in experiment [2], 8.47.

For the molecule `COCc1nc2c(N3C[C@H](C)N[C@@H](C)C3)cc(S(=O)(=O)NC3(C)CC3)cc2n1-c1nnc(C(F)F)s1` [Compound 077T], the pIC50 in experiment [1] is 7.46; in experiment [2], 7.56.

In the case of `C[C@H]1CN(c2cc(S(=O)(=O)NC3(C)CC3)cc3c2nc(N2CCOCC2)n3-c2nnc(C(F)F)s2)C[C@H](C)N1` [Compound 077V], the pIC50 in experiment [1] was 7.43; in experiment [2] it was 7.66.

Consider `C[C@H]1CN(c2cc(S(=O)(=O)NC3(C)CC3)cc3c2nc(C2CCCCO2)n3-c2nnc(C(F)F)s2)C[C@H](C)N1` (some centres unmarked) [Compound 077X], for which the pIC50 is 7.80 in experiment [1] and 7.67 in experiment [2].

With `C[C@H]1CN(c2cc(S(=O)(=O)NC3(C)CC3)cc3c2nc(C2CC(F)(F)CO2)n3-c2nnc(C(F)F)s2)C[C@H](C)N1` (some centres unmarked) [Compound 079J], the values for the pIC50 in experiment [1] and in experiment [2] were 8.40 and 8.74, respectively.

`C[C@H]1CN(c2cc(S(=O)(=O)NC3(C)CC3)cc3c2nc(C2CC4(CC4)CO2)n3-c2nnc(C(F)F)s2)C[C@H](C)N1` (some centres unmarked) [Compound 079M]: the pIC50 in experiment [1] is 7.82; in experiment [2], 8.42.

In the case of `C[C@H]1CN(c2cc(S(=O)(=O)NC3(C)CC3)cn3c(-c4nnc(C(F)F)s4)c([C@H]4CCCO4)nc23)C[C@H](C)N1` [Compound 080B1], the figures for the pIC50 in experiment [1] and in experiment [2] were 8.40 and 8.66, respectively.

`C[C@H]1CN(c2cc(S(=O)(=O)NC3(C)CC3)cn3c(-c4nnc(C(F)F)s4)c(C4CCCO4)nc23)C[C@H](C)N1` (some centres unmarked) [Compound 080B]: the pIC50 is 9.00 in experiment [1] and 9.30 in experiment [2].

Regarding `C[C@H]1CN(c2cc(S(=O)(=O)NC3(C)CC3)cn3c(-c4nnc(C(F)F)s4)cnc23)C[C@H](C)N1` [Compound 080J], the pIC50 was 8.30 in experiment [1] and 8.62 in experiment [2].

In the case of `C[C@H]1CN(c2cc(S(=O)(=O)NC3(C)CC3)cn3c(-c4nnc(C(F)F)s4)c(Cl)nc23)C[C@H](C)N1` [Compound 080K], the pIC50 in experiment [1] was 8.40; in experiment [2], 8.77.

Turning to `C[C@H]1CN(c2cc(S(=O)(=O)NC3(C)CC3)cc3c(-c4nnc(C(F)F)s4)c([C@H]4CCCO4)nn23)C[C@H](C)N1` [Compound 083A1], the pIC50 in experiment [1] was 7.60; in experiment [2] it was 7.84.

With `C[C@H]1CN(c2cc(S(=O)(=O)NC3(C)CC3)cc3c(-c4nnc(C(F)F)s4)c([C@@H]4CCCO4)nn23)C[C@H](C)N1` [Compound 083A2], the pIC50 was 8.52 in experiment [1] and 9.00 in experiment [2].

In the case of `C[C@H]1CN(c2cc(S(=O)(=O)NC3(C)CC3)cc3c(-c4nnc(C(F)F)s4)c(C4CCCO4)nn23)C[C@H](C)N1` (some centres unmarked) [Compound 083A], the pIC50 in experiment [1] is 8.40; in experiment [2] it was 8.68.

As to `COC(C)(C)c1nc2n(-c3nnc(C(F)F)s3)c3cc(S(=O)(=O)NC4(C)CC4)cc(N4C[C@H](C)N[C@@H](C)C4)c3n2n1` [Compound 084H], the values for the pIC50 in experiment [1] and in experiment [2] were 8.52 and 9.15, respectively.

As for `C[C@H]1CN(c2cc(S(=O)(=O)NC3(C)CC3)cc3c2n2nc(C(=O)NC4CC4)nc2n3-c2nnc(C(F)F)s2)C[C@H](C)N1` [Compound 084J], the values for the pIC50 in experiment [1] and in experiment [2] were 7.80 and 9.15, respectively.

Regarding `C[C@H]1CN(c2cc(S(=O)(=O)NC3(C)CC3)cc3c2n2nc(C(=O)NC4(C)CC4)nc2n3-c2nnc(C(F)F)s2)C[C@H](C)N1` [Compound 084K], the figures for the pIC50 in experiment [1] and in experiment [2] were 8.05 and 9.15, respectively.

With `C[C@H]1CN(c2cc(S(=O)(=O)NC3(C)CC3)cc3c2n2nc(NC(=O)C4CC4)nc2n3-c2nnc(C(F)F)s2)C[C@H](C)N1` [Compound 084L], the pIC50 was 7.54 in experiment [1] and 8.96 in experiment [2].

In the case of `C[C@H]1CN(c2cc(S(=O)(=O)NC3(C)CC3)cc3c2n2nc(N4CCCC4=O)nc2n3-c2nnc(C(F)F)s2)C[C@H](C)N1` [Compound 084M], the results for the pIC50 in experiment [1] and in experiment [2] were 8.05 and 9.10, respectively.

In the case of `CC(C)C(=O)N1CCN(c2cc(S(=O)(=O)NC3(C)CC3)cc3c2[nH]c(=O)n3-c2nnc(C(F)F)s2)CC1` [Compound A002], the values for the pIC50 in experiment [1] and in experiment [2] were 7.07 and 7.79, respectively.

With `CC(C)C(=O)N1CCN(c2cc(S(=O)(=O)NC3(C)CC3)cc3c2n(C)c(=O)n3-c2nnc(C(F)F)s2)CC1` [Compound A003], the pIC50 in experiment [1] is 7.89; in experiment [2], 8.27.

With `CN(C)C(=O)N1CCN(c2cc(S(=O)(=O)NC3(C)CC3)cc3c2[nH]c(=O)n3-c2nnc(C(F)F)s2)CC1` [Compound A004], the pIC50 in experiment [1] was 7.10; in experiment [2], 7.97.

On to `Cn1c(=O)n(-c2nnc(C(F)F)s2)c2cc(S(=O)(=O)NC3(C)CC3)cc(N3CCNCC3)c21` [Compound A005], for which the pIC50 in experiment [1] is 7.35; in experiment [2], 7.52.

Turning to `CN(C)C(=O)N1CCN(c2cc(S(=O)(=O)NC3(C)CC3)cc3c2n(C)c(=O)n3-c2nnc(C(F)F)s2)CC1` [Compound A006], the results for the pIC50 in experiment [1] and in experiment [2] were 8.10 and 8.43, respectively.

As for `CN(C)C(=O)N1CCN(c2cc(S(=O)(=O)NC3(C#N)CC3)cc3c2n(C)c(=O)n3-c2nnc(C(F)F)s2)CC1` [Compound A013], the pIC50 in experiment [1] is 7.89; in experiment [2] it was 8.54.

In the case of `CC(C)C(=O)N1CCN(c2cc(S(=O)(=O)NC3(C#N)CC3)cc3c2n(C)c(=O)n3-c2nnc(C(F)F)s2)CC1` [Compound A014], the pIC50 was 7.43 in experiment [1] and 7.91 in experiment [2].

For the molecule `CC(C)n1c(=O)n(-c2nnc(C(F)F)s2)c2cc(S(=O)(=O)NC3(C)CC3)cc(N3CCN(C(=O)N(C)C)CC3)c21` [Compound A018], the pIC50 is 8.15 in experiment [1] and 7.47 in experiment [2].

For `CC(C)C(=O)N1CCN(c2cc(S(=O)(=O)NC3(C)CC3)cc3c2n(C(C)C)c(=O)n3-c2nnc(C(F)F)s2)CC1` [Compound A019], the pIC50 is 7.80 in experiment [1] and 7.74 in experiment [2].

Turning to `CC(C)S(=O)(=O)N1CCN(c2cc(S(=O)(=O)NC3(C)CC3)cc3c2n(C)c(=O)n3-c2nnc(C(F)F)s2)CC1` [Compound A023], the values for the pIC50 in experiment [1] and in experiment [2] were 8.40 and 8.82, respectively.

As to `Cn1c(=O)n(-c2nnc(C(F)F)s2)c2cc(S(=O)(=O)NC3(C)CC3)cc(N3CCN(C(=O)N4CCCC4)CC3)c21` [Compound A027], the pIC50 was 8.30 in experiment [1] and 8.42 in experiment [2].

Consider `COC(=O)N1CCN(c2cc(S(=O)(=O)NC3(C)CC3)cc3c2n(C)c(=O)n3-c2nnc(C(F)F)s2)CC1` [Compound A028], for which the pIC50 in experiment [1] was 7.32; in experiment [2], 7.72.

Consider `Cn1c(=O)n(-c2nnc(C(F)F)s2)c2cc(S(=O)(=O)NC3(C)CC3)cc(N3CCN(C(=O)C(C)(C)F)CC3)c21` [Compound A029], for which the pIC50 in experiment [1] is 8.10; in experiment [2] it was 8.52.

`Cn1c(=O)n(-c2nnc(C(F)F)s2)c2cc(S(=O)(=O)NC3(C)CC3)cc(N3CCN(C(=O)C(C)(C)O)CC3)c21` [Compound A030]: the results for the pIC50 in experiment [1] and in experiment [2] were 8.00 and 7.74, respectively.

On to `Cn1c(=O)n(-c2nnc(C(F)F)s2)c2cc(S(=O)(=O)NC3(CF)CC3)cc(N3CCNCC3)c21` [Compound A031], for which the results for the pIC50 in experiment [1] and in experiment [2] were 7.20 and 7.45, respectively.

As to `CN(C)C(=O)N1CCN(c2cc(S(=O)(=O)NC3(CF)CC3)cc3c2n(C)c(=O)n3-c2nnc(C(F)F)s2)CC1` [Compound A032], the pIC50 was 8.30 in experiment [1] and 8.62 in experiment [2].

For `CC(C)C(=O)N1CCN(c2cc(S(=O)(=O)NC3(CF)CC3)cc3c2n(C)c(=O)n3-c2nnc(C(F)F)s2)CC1` [Compound A033], the pIC50 in experiment [1] is 8.05; in experiment [2], 8.40.

In the case of `CN(C)C(=O)N1CCN(c2cc(S(=O)(=O)NC3(C)COC3)cc3c2n(C)c(=O)n3-c2nnc(C(F)F)s2)CC1` [Compound A036], the figures for the pIC50 in experiment [1] and in experiment [2] were 7.92 and 8.17, respectively.

Regarding `CC(C)C(=O)N1CCN(c2cc(S(=O)(=O)NC3(C)COC3)cc3c2n(C)c(=O)n3-c2nnc(C(F)F)s2)CC1` [Compound A037], the pIC50 in experiment [1] is 7.85; in experiment [2], 8.17.
